Test results as given in US20130296346A1, “DIPHENYL-AMINE DERIVATIVES: USES, PROCESS OF SYNTHESIS AND PHARMACEUTICAL COMPOSITIONS” (Faes Farma, S.A., priority 2010, published 2013).
Where a name gives a salt, the structure may show the parent alone. Values belong to the compound of their own block, whether it stands above or below them.

Experiments:
IL6r = experiment: IL-6R transfectant, STAT3 reporter gene (secreted phosphatase); assay type: cell-based
Text: (§1) The secreted phosphatase sPase was used as reporter for its ability to process the luminiscent or colorimetric substrates from the culture based in the hydrolysis of substrates chemically similar to nitrophenol phosphate. Five generation of transfectants were developed as described: • 1. IL-4R. Chains of Type II IL-4-r, which is the common one within non-haematopoietic cells were transfected, as well as STAT6 which the key molecule in the nuclear signalling route by IL-4-r, and finally a reporter gene to measure the response to STAT6 was introduced. Endogenously, cells had Janus Associated Kinase 1 (JAK1) which was previously known to be associated with STAT6 via p62/aPKC. • 2. IL-6R. Chains of IL-6R were transfected and a reporter gene able to measure the response to STAT3 was introduced. As it is well known, STAT3 is a transductional molecule and a nuclear factor physiologically produced in the standard responses IL-6/IL-6R. • 3. TNF-R. In this case, a reporter gene able to measure the response to NF-kB was introduced, as this is the transductional molecule and the nuclear factor physiologically produced in response to TNF-alpha. […] LPS-Receptor complex represented by TLR4/MD2/CD14. Reporter genes with elements of response to NFkB were used as in the previous case, but the selectivity was achieved by the co-transfection of components of the LPS-R complex. The LPS is captured from the serum through the union to one plasma protein known as LBP, which transfers the LPS to the membrane protein CD14. The LBP inclusion accounts for an increase of 1000-fold the sensitivity versus media or cultures LBP-frees. The molecule CD14 is not an LPS-receptor but a module of the receptor complex which captures LBP, allowing the transference of LPS in the cellular surface to MD2. CD14 has not a cytoplasmic tail and it is not able to be a signal transducer but it substantially increases the sensitivity of the system. In a similar way, MD2 is not a signal transducer but the combination of CD14 and MD2 allows the increase of the sensitivity by 10000-fold. • 5. IL-1R. Reporter genes with elements of response to NFkB were used as in the previous case, but the selectivity was achieved by the expression of components belonging to the receptor complex IL-1R. IL-1R belongs to a receptors superfamily which uses TIR transduction domains (Toll-like IL-1R). It is known that the IL-1R route activates mitogen-activated protein kinases (MAPK) of JNK type which in turn generate nuclear factors transcriptionally active as AP-1. The reporter gene includes NFkB and AP-1 sites chained in order to simulate the physiological situation.

TNFr = experiment: TNF-R transfectant, NF-kB reporter gene (secreted phosphatase); assay type: cell-based
Text: as §1

IL4r = experiment: IL-4R transfectant, STAT6 reporter gene (secreted phosphatase); assay type: cell-based
Text: as §1

HCT116 = experiment: In vitro cytotoxicity, SRB method; assay type: cell-based; settings: Homo sapiens, HCT-116, HCT116 colon cancer, 72 hours
Method: (§2) SRB method was followed (Wieland, V., et al. Sulforhodamine B Assay and Chemosensitivity. Chemosensitivity, volume 1, In Vitro Assays. Methods in Molecular Medicine. Edited by Rosalyn D. Blumenthal. Humana Press, Totowa, N.J., 2005).
(§3) Cells were seeded in microplates of 96 wells. In each well, according to the cell type, specific number of cells were seeded in 200 microliters. In these conditions, cells were cultured for 3 days, with the aim of reaching their exponential phase of growing to assay the product cytotoxicity. The product concentrations were prepared just the day of treatments, after thawing the stock solutions (10 mM). After harvesting the microplate with the seeded cells for 3 days, the culture medium was discarded and replaced by 150 μl of fresh medium in each well. This was followed by the addition of 50 μl of the corresponding product dilution so as the final concentration in the final volume of 200 microliters in each well was the one scheduled. The products, at the assayed concentrations, were in contact with the cell growing monolayer for 72 hours and incubated at 37° C., 5% CO2. Finally, cells were growth arrested adding […] of cold TCA (Trichloroacetic acid) 50%, (final concentration of 10% in the well). Microplate was then maintained at 4° C. for over 60 min to fix cellular proteins till initiation of washing and staining with SRB.
(§4) Cell viability (%)=(Cell population of the treated well/Maximum cell population of the Standard curve)×100.
(§5) Mean viability values for each concentration were calculated from the values obtained for each well in which that concentration was assayed.

SF268 = experiment: In vitro cytotoxicity, SRB method; assay type: cell-based; settings: Homo sapiens, SF-268, SF268 glioblastoma, 72 hours
Method: as §2, §3, §4, §5

NCI-H460 = experiment: In vitro cytotoxicity, SRB method; assay type: cell-based; settings: Homo sapiens, NCI-H460 lung, 72 hours
Method: as §2, §3, §4, §5

B16-F1 = experiment: In vitro cytotoxicity, SRB method; assay type: cell-based; settings: Mus musculus, B16-F1 melanoma, 72 hours
Method: as §2, §3, §4, §5

HepG2 = experiment: In vitro cytotoxicity, SRB method; assay type: cell-based; settings: Homo sapiens, HepG2 hepatoma, 72 hours
Method: as §2, §3, §4, §5

Malm-3M = experiment: In vitro cytotoxicity, SRB method; assay type: cell-based; settings: Malm-3M melanoma, 72 hours
Method: as §2, §3, §4, §5

SW260 = experiment: In vitro cytotoxicity, SRB method; assay type: cell-based; settings: SW260 colon cancer, 72 hours
Method: as §2, §3, §4, §5

[1] = Cytotoxicity for human non-tumoral cells, XTT; assay type: cell-based; settings: HUVEC cells (primary, from human cords)
Method: (§6) The cytotoxicity of the compounds for human non-tumoral cells was studied in fibroblasts, HUVEC cells and resting PBLs (Peripheral Blood lymphocytes).
HUVEC cells were obtained by treating human cords with collagenase type I, […] in Hank's medium incubating 20 minutes at 37° C. Cells were collected afterwards and cultivated in medium M199 with supplements of 20% FBS, 1% P/S and 25 mg/500 ml of medium ECGF, Cells were grown on a 0.2% gelatin matrix.
(§7) Distinct amounts of exponentially growing cells were seeded in 96-well flat-bottomed microtiter plates in a final volume of 100 μl were seeded in 96-well flat-bottomed microtiter plates, and incubated at 37° C. in a humidified atmosphere of 5% CO2/95% air for 24 h to allow the cells attach to the plates. Then, cells were incubated with different concentrations of the assayed compound at 37° C. under the 5% CO2/95% air atmosphere for 72 h. Cell proliferation was quantified using the XTT cell proliferation kit (Roche Molecular Biochemicals, Mannheim, Germany) following the manufacturer's instructions. Briefly, a freshly prepared mixture solution (50 μl) of XTT labelling reagent and PMS (N-methyldibenzopyrazine methyl sulfate) electron coupling reagent was added to each well. The resulting mixtures were further incubated for 4 h in a humidified atmosphere (37° C., 5% CO2), and the absorbance of the formazan product generated was measured with a microtiter plate reader at a test wavelength of 490 nm and a reference wavelength of 655 nm. The IC50 (50% inhibitory concentration) was then calculated as the drug concentration causing a 50% inhibition of cell proliferation. Data are shown as mean values of four independent experiments each performed in triplicate.

resting human PBLs = experiment: Apoptosis of resting human PBLs; assay type: cell-based
Method: To isolate normal peripheral blood lymphocytes (PBLs), mononuclear cells were obtained from fresh human peripheral blood from healthy volunteers by centrifugation on Ficoll-Hypaque density gradients, washed with phosphate-buffered saline (PBS), and resuspended in RPMI-1640 medium containing 10% (v/v) heat-inactivated FBS, 2 mM L-glutamine, 100 U/ml penicillin, and 100 μg/ml streptomycin as described (Cabaner et al. Br. J. Pharmacol 127:813-825.1999). Monocytes were depleted by culture dish adherence after overnight incubation. Nonadherent cells (lymphocytes) were washed with PBS and collected. PBL preparations were typically 70-75% CD3^+, 24-29% CD 19^+, and less than 0.4% CD 14^+.

[2] = Cytotoxicity for human non-tumoral cells, XTT; assay type: cell-based; settings: Fibroblasts
Method: as §6, §7

Compound: C(CCCNCc1ccsc1)=C(c1ccccc1)c1ccccc1.Cl
melting point: 108 to 109.7 °C

Compound: C(CCCNCc1ccccn1)=C(c1ccccc1)c1ccccc1.Cl
melting point: 125 to 126.9 °C

Compound: C(CCNCc1cccs1)=C(c1ccccc1)c1ccccc1.Cl [Compound 13, (4,4-diphenyl-but-3-enyl)-thiophen-2-ylmethyl-amine hydrochloride]
melting point: 163 to 165.5 °C
Inhibition of IL6r (IL6r): Inhibition of IL6r total
Inhibition of TNFr (TNFr): Inhibition of TNFr total
Inhibition of IL4r (IL4r): Inhibition of IL4r total

Compound: Cc1nc2ccccc2n1CCCC=C(c1ccccc1)c1ccccc1 [Compound 27]
Inhibition of IL6r (IL6r): Inhibition of IL6r low-75%
Inhibition of TNFr (TNFr): Inhibition of TNFr total
Inhibition of IL4r (IL4r): Inhibition of IL4r total

Compound: C(CCCn1ccnc1)=C(c1ccccc1)c1ccccc1 [Compound 28, 1-(5,5-Diphenyl-pent-4-enyl)-1H-imidazole]
Inhibition of IL6r (IL6r): Inhibition of IL6r down-low (*)
Inhibition of TNFr (TNFr): Inhibition of TNFr 25%
Inhibition of IL4r (IL4r): Inhibition of IL4r 75%

Compound: Clc1nc(NCCCCC=C(c2ccccc2)c2ccccc2)c2nc[nH]c2n1 [Compound 29, (2-Chloro-9H-purin-6-yl)-(6,6-diphenyl-hex-5-enyl)-amine]
melting point: 205.7 to 207 °C

Compound: C(CCCCNc1ncnc2[nH]ncc12)=C(c1ccccc1)c1ccccc1 [Compound 40, (6,6-Diphenyl-hex-5-enyl)-(1H-pyrazolo[3,4-d]pyrimidin-4-yl)amine]
IC50 (HCT116): 5 to 50 µM
IC50 (SF268): 33 µM
IC50 (NCI-H460): 8.1 µM
IC50 (B16-F1): 9 µM
IC50 (HepG2): 5 to 50 µM
IC50 (Malm-3M): 30 µM
IC50 (SW260): 50 µM
IC50 at 72 h [1]: 36 µM

Compound: C(CCCNc1ncnc2[nH]ncc12)=C(c1ccccc1)c1ccccc1 [Compound 41, (5,5-Diphenyl-pent-4-enyl)-(1H-pyrazolo[3,4-d]pyrimidin-4-yl)amine]
IC50 (HCT116): 5 to 50 µM
IC50 (SF268): 17 µM
IC50 (NCI-H460): 2 µM
IC50 (B16-F1): 6 µM
IC50 (HepG2): 5 to 50 µM
IC50 (Malm-3M): 44 µM
IC50 (SW260): 5 to 50 µM

Compound: CC(C)n1ncc2c(NCCCCC=C(c3ccccc3)c3ccccc3)ncnc21 [Compound 44, (6,6-Diphenyl-hex-5-enyl)-(1-isopropyl-1H-pyrazolo[3,4-d]pyrimidin-4-yl)amine hydrochloric salt]
IC50 (HCT116): 5 to 50 µM
IC50 (SF268): 31 µM
IC50 (NCI-H460): 9.4 µM
IC50 (B16-F1): 8 µM
IC50 (HepG2): 5 to 50 µM
IC50 (Malm-3M): 40 µM
IC50 (SW260): 50 µM

Compound: COc1cccc2c1C(=O)c1c(O)c3c(c(O)c1C2=O)C[C@@](O)(C(=O)CO)C[C@@H]3O[C@H]1C[C@H](N)[C@H](O)[C@H](C)O1 [Doxorubicin, reference compound]
% Apoptosis PBLs (resting human PBLs; 10^−4 M): 21.7%
% Apoptosis PBLs (resting human PBLs; 10^−5 M): 13.2%
IC50 at 72 h [1]: 0.23 µM

Compound: CC(=O)O[C@H]1C(=O)[C@@]2(C)[C@H]([C@H](OC(=O)c3ccccc3)[C@]3(O)C[C@H](OC(=O)[C@H](O)[C@@H](NC(=O)c4ccccc4)c4ccccc4)C(C)=C1C3(C)C)[C@]1(OC(C)=O)CO[C@@H]1C[C@@H]2O [Taxol, reference compound]
IC50 at 72 h [2]: 0.00075 µM
IC50 at 72 h [1]: 0.00047 µM

The next lines start with the values.

melting point: 121.4 to 122.7 °C
Compound: Cl.FC(F)(F)c1ccc(CNCCCC=C(c2ccccc2)c2ccccc2)cc1

melting point: 126 to 128 °C
Compound: Cl.FC(F)(F)Oc1ccc(CNCCC=C(c2ccccc2)c2ccccc2)cc1

melting point: 109 to 110.5 °C
Compound: Cl.FC(F)(F)Oc1ccc(CNCCCCC=C(c2ccccc2)c2ccccc2)cc1

melting point: 69.2 to 73.8 °C
Compound: COc1ccc(CNCCCC=C(c2ccccc2)c2ccccc2)cc1.Cl

melting point: 102.4 to 104 °C
Compound: Cl.FC(F)(F)Oc1cccc(CNCCCC=C(c2ccccc2)c2ccccc2)c1

melting point: 109 to 110.7 °C
Inhibition of IL6r (IL6r): Inhibition of IL6r down 5%
Inhibition of TNFr (TNFr): Inhibition of TNFr up 30%
Inhibition of IL4r (IL4r): Inhibition of IL4r total
Compound: Cl.FC(F)(F)Oc1ccccc1CNCCCC=C(c1ccccc1)c1ccccc1 [Compound 10, (5,5-diphenyl-pent-4-enyl)-(2-trifluoromethoxybenzyl)amine hydrochloride]
